Measured values from PMC5769128, “Human UDP-Glucuronosyltransferase 2B4 and 2B7 Are Responsible for Naftopidil Glucuronidation in Vitro” (Frontiers in Pharmacology, 2018).

Target: T1, recombinant human UGT2B4 (Homo sapiens, UniProt P06133)
T1 construct: purchased BD Gentest
T1 sequence (P06133 24-528): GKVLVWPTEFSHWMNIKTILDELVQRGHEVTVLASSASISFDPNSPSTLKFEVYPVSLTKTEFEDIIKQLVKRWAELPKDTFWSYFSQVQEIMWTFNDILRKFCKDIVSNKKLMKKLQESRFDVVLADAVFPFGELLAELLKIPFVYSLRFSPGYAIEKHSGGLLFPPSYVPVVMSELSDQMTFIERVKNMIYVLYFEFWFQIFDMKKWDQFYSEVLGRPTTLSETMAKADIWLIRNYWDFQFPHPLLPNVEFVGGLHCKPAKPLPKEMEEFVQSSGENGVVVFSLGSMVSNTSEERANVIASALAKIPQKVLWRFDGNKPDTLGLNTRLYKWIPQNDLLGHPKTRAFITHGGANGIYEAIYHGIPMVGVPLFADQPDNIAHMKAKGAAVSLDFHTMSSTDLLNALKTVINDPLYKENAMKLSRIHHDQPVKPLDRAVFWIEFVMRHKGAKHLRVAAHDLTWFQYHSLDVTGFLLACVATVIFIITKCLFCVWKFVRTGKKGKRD
Assay: UGT reaction screening of NAF enantiomers, UGT2B4
Format: in vitro ADME
Conditions: 10 μM substrate, 45 min

Compound: COc1ccccc1N1CCN(C[C@H](O)COc2cccc3ccccc23)CC1 [S(-)-NAF]
- Glucuronidation activity of UGT2B4 compared with UGT2B7: relatively higher activity than UGT2B7
